For 38 compounds, IC50 and IC90 results are on record in ChEMBL document CHEMBL4483862, “Open-source discovery of chemical leads for next-generation chemoprotective antimalarials” (2018).

The test system of the assay is Plasmodium berghei. Description: Luciferase/luciferin-expressing antifolate-resistant parasites were used to infect a culture of HepG2 cells that were pre-incubated with compounds. Infected hepatocytes emit light due to the luciferase reaction. Assay results are presented as the percent inhibition of light emission compared to control. […]. Type of assay: functional. Conditions: sporozoite; for IC90: read-out: LUCIFERASE INFECTION ASSAY - IC90.

Where [1] appears, read: read-out: LUCIFERASE INFECTION ASSAY - IC50.

As a reminder, the IC50 is the concentration that inhibits the measured activity by half. A word on the IC90: it is the point of the concentration-response curve where the effect stands at 90%.

In the case of `CCn1c(SCCOc2ccccc2Cl)nnc1-c1cc(-c2ccccc2)nc2ccccc12`, the IC90 was above 10 µM. Further, the IC50 (PBLUC_HILL_SLOPE 1.65, PBLUC_R_SQUARED 0.274, read-out: LUCIFERASE INFECTION ASSAY - IC50) is above 10 µM.
`Cc1cc(O)cc2c1C(=O)/C(=C/c1ccccc1F)O2`: the IC90 was determined as 11.8 µM. Moreover, the IC50 (FFLUC_HILL_SLOPE 1.55, FFLUC_R_SQUARED 0.688, HEPG2TOX_HILL_SLOPE 12, HEPG2TOX_R_SQUARED 0.541, PBLUC_HILL_SLOPE 35.8, PBLUC_R_SQUARED 0.416, read-out: LUCIFERASE INFECTION ASSAY - IC50) is 11.1 µM.
`COc1ccccc1CNc1nc(NCc2cccc(OC)c2OC)c2sccc2n1`: the IC90 is above 7.56 µM. Moreover, the IC50 (PBLUC_HILL_SLOPE 0.707, PBLUC_R_SQUARED 0.411, read-out: LUCIFERASE INFECTION ASSAY - IC50) stood at 2.69 µM.
Consider `N#Cc1cc(NC(=O)c2cccc(Cl)c2)ccc1Sc1cccc(C(F)(F)F)c1`, for which the IC90 is above 7.62 µM. Further, the IC50 under setting [1] is above 7.62 µM.
In the case of `CCCn1c(C)cc(/C=C(\C#N)C(=O)OCC(=O)Nc2sc(C)c(-c3ccc(C)cc3)c2C(=O)OCC)c1C`, the IC90 was above 10 µM. Further, under “PBLUC_HILL_SLOPE 0.191, PBLUC_R_SQUARED 0.0121, read-out: LUCIFERASE INFECTION ASSAY - IC50”, the IC50 is above 10 µM.
`O=C(NCCc1c[nH]c2ccccc12)c1ccc2c(c1)CC(c1ccccc1)OC2=O` (stereo unspecified): the IC90 was above 10 µM. Besides, under setting [1], the IC50 is above 10 µM.
With `Oc1ccc(/C=C/c2ccc3cccc(O)c3n2)cc1`, the IC90 worked out at 5.07 µM. For the same compound, the concentration for half-maximal inhibition (IC50) (HEPG2TOX_HILL_SLOPE 13.8, HEPG2TOX_R_SQUARED 0.969, PBLUC_HILL_SLOPE 21.8, PBLUC_R_SQUARED 0.339, read-out: LUCIFERASE INFECTION ASSAY - IC50) is 4.58 µM.
In the case of `Cc1ccc(-n2nnnc2COc2cc(C)ccc2C(C)C)c(C)c1`, the IC90 was above 9.81 µM. The concentration for half-maximal inhibition (IC50) (PBLUC_HILL_SLOPE 3.14, PBLUC_R_SQUARED 0.65, read-out: LUCIFERASE INFECTION ASSAY - IC50) worked out at 6.61 µM.
In the case of `CCOC(=O)c1sc(N2N=C3/C(=C/c4ccccc4Cl)CCCC3C2c2ccccc2Cl)nc1C` (stereo unspecified), the IC90 is above 10 µM. In addition, the concentration for half-maximal inhibition (IC50) (FFLUC_HILL_SLOPE 1.4, FFLUC_R_SQUARED 0.297, PBLUC_HILL_SLOPE 2.64, PBLUC_R_SQUARED 0.0563, read-out: LUCIFERASE INFECTION ASSAY - IC50) turned out to be 4.97 µM.
`CNc1nc2cnc(Nc3cccc(N(C)C)c3)cc2n1-c1ccccc1`: the IC90 is above 10 µM. Further, the IC50 under setting [1] was above 10 µM.
As for `CCCNC(=O)COc1ccc(Nc2ccccc2)cc1`, the IC90 is above 10 µM. For the same compound, the half-maximal inhibitory concentration (IC50) under setting [1] is above 10 µM.
On to `O=[N+]([O-])c1ccc(Nc2cccc(OC3CCCC3)c2)nc1`, for which the IC90 is above 10 µM. The IC50 under setting [1] was above 10 µM.
For the compound `O=C1C=C(c2ccc(Cl)cc2)C(=O)N1Nc1ccc(Cl)cc1Cl`, the IC90 was above 8.98 µM. For the same compound, for the setting “FFLUC_HILL_SLOPE 15.4, FFLUC_R_SQUARED 0.324, HEPG2TOX_HILL_SLOPE 12.8, HEPG2TOX_R_SQUARED 0.543, PBLUC_HILL_SLOPE 10.1, PBLUC_R_SQUARED 0.012, read-out: LUCIFERASE INFECTION ASSAY - IC50”, the IC50 worked out at 8.35 µM.
`CC(C)CN1CCC1(C(=O)NCc1cccc2ccccc12)c1ccccc1` (stereo unspecified): the IC90 is above 8.86 µM. Besides, the IC50 (HEPG2TOX_HILL_SLOPE 0.125, HEPG2TOX_R_SQUARED 0.379, PBLUC_HILL_SLOPE 1.82, PBLUC_R_SQUARED 0.397, read-out: LUCIFERASE INFECTION ASSAY - IC50) turned out to be 5.57 µM.
Regarding `O=C(Nc1ccc(Oc2cc(C(F)(F)F)cc(C(F)(F)F)c2)cc1)Nc1ccc(OC(F)(F)F)cc1`, the IC90 was determined as 0.304 µM. Also, the IC50 (FFLUC_HILL_SLOPE 4.18, FFLUC_R_SQUARED 0.0377, HEPG2TOX_HILL_SLOPE 3.88, HEPG2TOX_R_SQUARED 0.972, PBLUC_HILL_SLOPE 90.6, PBLUC_R_SQUARED 0.773, read-out: LUCIFERASE INFECTION ASSAY - IC50) is 0.297 µM.
As for `CCCC(C)C(=O)Nc1nc2ccc(C)cn2c1C(=O)NC1CCCCC1` (stereo unspecified), the IC90 was above 8.91 µM. Under “FFLUC_HILL_SLOPE 3.24, FFLUC_R_SQUARED 0.792, read-out: LUCIFERASE INFECTION ASSAY - IC50”, the IC50 is above 8.91 µM.
For `CC(=O)O[C@H]1CC[C@]23C(=O)O[C@]45CC[C@H](C6=CC(=O)OC6)[C@@]4(C)CCC2C5CC[C@]3(O)C1`, the IC90 turned out to be 0.747 µM. In addition, the IC50 (HEPG2TOX_HILL_SLOPE 2.43, HEPG2TOX_R_SQUARED 0.931, PBLUC_HILL_SLOPE 2.64, PBLUC_R_SQUARED 0.666, read-out: LUCIFERASE INFECTION ASSAY - IC50) is 0.325 µM.
For the compound `COc1cc(-c2cnc3cnc(-c4ccc(CNc5ccccc5)cc4)cn23)cc(OC)c1OC`, the IC90 came out at 5.78 µM. Moreover, the IC50 (PBLUC_HILL_SLOPE 3.28, PBLUC_R_SQUARED 0.672, read-out: LUCIFERASE INFECTION ASSAY - IC50) came out at 2.96 µM.
In the case of `COc1ccc(CCNc2ncnc3sc(C)cc23)cc1OC`, the IC90 stood at 2.92 µM. Besides, the IC50 under setting [1] was found to be 0.791 µM.
As to `O=C(Nc1ccc2c(c1)OCO2)C1CCN(C(C(=O)c2c[nH]c3ccccc23)c2ccccc2)CC1` (stereo unspecified), the IC90 is above 10 µM. Further, the IC50 (FFLUC_HILL_SLOPE 60.7, FFLUC_R_SQUARED 0.292, PBLUC_HILL_SLOPE 4.02, PBLUC_R_SQUARED 0.0454, read-out: LUCIFERASE INFECTION ASSAY - IC50) was found to be 7.8 µM.
Consider `COc1ccc(Nc2ncnc3scc(-c4ccc(OC)cc4)c23)cc1`, for which the concentration for an effect of 90% (IC90) worked out at 4.29 µM. Also, the IC50 under setting [1] worked out at 2.65 µM.
The corresponding values for `CCCCOc1ccc(Nc2nc(C(N)COCc3ccccc3)cs2)nn1` (stereo unspecified) are above 8.26 µM and above 8.26 µM.
With `Fc1ccccc1COc1ccccc1CNCc1cccnc1`, the IC90 is above 10.2 µM. For the same compound, the IC50 under setting [1] was above 10.2 µM.
On to `Nc1ncnc(N/N=C/c2ccc(C3=CCCC3)s2)c1[N+](=O)[O-]`, for which the IC90 was above 10 µM. The IC50 (FFLUC_HILL_SLOPE 0.804, FFLUC_R_SQUARED 0.918, PBLUC_HILL_SLOPE 0.696, PBLUC_R_SQUARED 0.659, read-out: LUCIFERASE INFECTION ASSAY - IC50) turned out to be 0.463 µM.
Regarding `CN(Cc1cnn(Cc2ccccc2)c1)C(=O)c1cccc(S(=O)(=O)N2CCc3ccccc32)c1`, the IC90 stood at 9.38 µM. Moreover, for the setting “HEPG2TOX_HILL_SLOPE 1.04, HEPG2TOX_R_SQUARED 0.954, PBLUC_HILL_SLOPE 3.29, PBLUC_R_SQUARED 0.175, read-out: LUCIFERASE INFECTION ASSAY - IC50”, the IC50 was determined as 4.81 µM.
`CNC(=O)c1nn(CC2CCCCC2)c2c1CC(NC1CCN(Cc3ccccc3)CC1)CC2` (stereo unspecified): the IC90 is above 7.12 µM. Besides, for the setting “PBLUC_HILL_SLOPE 1.91, PBLUC_R_SQUARED 0.276, read-out: LUCIFERASE INFECTION ASSAY - IC50”, the IC50 is 6.52 µM.
As for `Nn1c(SCc2cc(F)cc3c2OC(c2ccccc2)OC3)nnc1-c1ccc(OC(F)F)cc1` (stereo unspecified), the IC90 is above 10 µM. For the same compound, for the setting “FFLUC_HILL_SLOPE 12.2, FFLUC_R_SQUARED 0.768, read-out: LUCIFERASE INFECTION ASSAY - IC50”, the IC50 was above 10 µM.
For the compound `CCCCNC(=O)c1c(NC(=O)c2cccc(F)c2F)nc2ccccn12`, the 90% effect concentration (IC90) is above 8.86 µM. Further, the IC50 under setting [1] is above 8.86 µM.
On to `Cc1ccc(C(=O)c2ccccc2C(=O)OC(C)C(=O)N(Cc2ccccc2)Cc2ccccc2)cc1` (stereo unspecified), for which the IC90 is 9.62 µM. Also, the IC50 (HEPG2TOX_HILL_SLOPE 7.35, HEPG2TOX_R_SQUARED 0.243, PBLUC_HILL_SLOPE 15.7, PBLUC_R_SQUARED 0.159, read-out: LUCIFERASE INFECTION ASSAY - IC50) came out at 8.36 µM.
Take `C/C(N)=C(/C#N)C(=O)COC(=O)CCN1C(=O)C2CC=CCC2C1=O` (stereo unspecified): the IC90 was above 10 µM. Under setting [1], the IC50 was above 10 µM.
Regarding `COc1ccc(C2CCCN2Cc2cc(=O)oc3cc(C)c(Cl)cc23)c(OC)c1` (stereo unspecified), the IC90 was above 10 µM. In addition, the 50% inhibitory concentration (IC50) (PBLUC_HILL_SLOPE 2.17, PBLUC_R_SQUARED 0.455, read-out: LUCIFERASE INFECTION ASSAY - IC50) came out at 6.43 µM.
As for `CCSc1nc2scc(C(F)(F)F)n2c(=O)c1C(=O)N1CC(C)CC(C)C1` (stereo unspecified), the IC90 was above 7.87 µM. Besides, the IC50 under setting [1] is above 7.87 µM.
In the case of `CCN(CC)CCn1c(NC(=O)c2cc3c(C)nn(Cc4ccccc4)c3s2)nc2ccccc21`, the IC90 came out at 5.29 µM. Also, under “FFLUC_HILL_SLOPE 11, FFLUC_R_SQUARED 0.377, PBLUC_HILL_SLOPE 1.67, PBLUC_R_SQUARED 0.43, read-out: LUCIFERASE INFECTION ASSAY - IC50”, the IC50 was found to be 1.42 µM.
Regarding `Cc1c(-c2ccccc2)sc2[nH]c(CC(N)=O)nc(=O)c12`, the IC90 worked out at 1.59 µM. The IC50 (HEPG2TOX_HILL_SLOPE 1.61, HEPG2TOX_R_SQUARED 0.893, PBLUC_HILL_SLOPE 16.8, PBLUC_R_SQUARED 0.567, read-out: LUCIFERASE INFECTION ASSAY - IC50) is 1.39 µM.
With `CC(C)c1cccc(Nc2cc3c(cn2)nc(Nc2ccccc2)n3C)c1`, the IC90 was above 10 µM. For the same compound, the IC50 (PBLUC_HILL_SLOPE 1.87, PBLUC_R_SQUARED 0.0991, read-out: LUCIFERASE INFECTION ASSAY - IC50) was above 10 µM.
For `O=C(CNc1ccccc1-c1ccccc1)Nc1cc(Cl)ccc1F`, the IC90 was above 10 µM. In addition, the half-inhibitory concentration (IC50) under setting [1] is above 10 µM.
Take `CC(C)c1cc(NCCCN2CCOCC2)n2ncc(-c3ccccc3)c2n1`: the IC90 was above 8.7 µM. Also, for the setting “PBLUC_HILL_SLOPE 2.21, PBLUC_R_SQUARED 0.515, read-out: LUCIFERASE INFECTION ASSAY - IC50”, the IC50 was determined as 4.34 µM.
For `CC(C)NC(=O)C1(C)CCN1C(=O)c1ccc(-c2ccccc2)cc1` (stereo unspecified), the IC90 was above 9.81 µM. Also, the half-inhibitory concentration (IC50) (PBLUC_HILL_SLOPE 1.28, PBLUC_R_SQUARED 0.251, read-out: LUCIFERASE INFECTION ASSAY - IC50) is above 9.81 µM.
